# Results as given in US20260070929A1, “METHODS AND COMPOSITIONS FOR MODULATING KRAS(G12D)” (Ranok Therapeutics (Hangzhou) Co. LTD., priority 2022, published 2026).
# Read-outs that look alike come from different tables or passages of the source.
# Key:
# [1] = molecular target: T1, KRAS(G12D)/SOS1 (Homo sapiens, UniProt P01116, G12D); assay: KRAS(G12D)/SOS1 homogeneous time-resolved fluorescence (HTRF) assay; assay type: binding; details: absence of GTP; 4° C., 3 hr
# T1 construct: purchased Cisbio 63ADK000CB17PEH
# Summary of the method: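 HTRF kit assay of compound-blocked KRAS(G12D)–SOS1 interaction, run without GTP. Compounds were tested as 3-fold dilutions from 20 µM to 1.02 nM and incubated with the reaction components for 3 hr at 4 °C, sealed. IC50 was taken as the concentration giving 50% of maximal inhibition.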
# [2] = test system: AGS gastric carcinoma cells [heterozygous G12D]; assay: Cancer cell line proliferation (CellTiter-Glo), AGS; assay type: cell-based; details: 72 hr treatment, read-out: AGS CTG (EC50)
# Summary of the method: (§1)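 4,000 cells/well; 72 hr pre-culture, 37° C./5% CO2. Cpd: 3-fold series, 20 μM–1.02 nM as prepared, 0.5% DMSO final; 72 hr exposure. Readout CellTiter-Glo; EC50 fit.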
# [3] = test system: A-427 lung carcinoma cells [heterozygous G12D]; assay: Cancer cell line proliferation (CellTiter-Glo), A-427; assay type: cell-based; details: A-427 cells, 72 hr treatment, read-out: A427 CTG (EC50)
# Summary of the method: as §1
# [4] = test system: ASPC1 pancreatic adenocarcinoma cells [homozygous G12D]; assay: Cancer cell line proliferation (CellTiter-Glo), ASPC1; assay type: cell-based; details: 72 hr treatment, read-out: ASPC-1 CTG (EC50)
# Summary of the method: as §1
# [5] = test system: SW1990 pancreatic adenocarcinoma cells [homozygous G12D]; assay: Cancer cell line proliferation (CellTiter-Glo), SW1990; assay type: cell-based; details: 72 hr treatment, read-out: SW1990 CTG (EC50)
# Summary of the method: as §1
# T1 sequence (P01116 1-188 isoform P01116-2 G12D): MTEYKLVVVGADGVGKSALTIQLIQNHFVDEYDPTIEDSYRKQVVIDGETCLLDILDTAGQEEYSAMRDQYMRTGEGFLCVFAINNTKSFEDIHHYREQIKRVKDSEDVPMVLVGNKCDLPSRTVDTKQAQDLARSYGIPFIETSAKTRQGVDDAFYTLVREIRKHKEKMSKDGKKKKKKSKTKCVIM
Compound,IC50 [1] [nM],EC50 ([2]; Homo sapiens) [nM],EC50 ([3]; Homo sapiens) [nM],"EC50 ([4]; Homo sapiens, ASPC1, 72 h) [nM]",EC50 ([5]; Homo sapiens) [nM],EC50 [2] [nM],EC50 [3] [nM],EC50 [4] [nM],EC50 [5] [nM]
C#Cc1cccc2cc(O)cc(-c3ncc4c(N5CC6CCC(C5)N6C(C)=O)nc(OCC5(CN6CCN(CC7CCN(Cc8ccc9c(c8)CN(C(=O)c8cc(C(C)C)c(O)cc8O)C9)CC7)CC6)CC5)nc4c3F)c12 [Compound 151],< 100,100 to 1000,100 to 1000,100 to 1000,100 to 1000,,,,
C#Cc1c(F)ccc2cc(O)cc(-c3ncc4c(N5CC6CCC(C5)N6)nc(OCC5(CN6CCN(CC7CCN(Cc8ccc(-n9c(C(=O)NCC)nnc9-c9cc(C(C)C)c(O)cc9O)cc8)CC7)CC6)CC5)nc4c3F)c12 [Compound 148],< 100,< 100,< 100,< 100,< 100,,,,
C#Cc1cccc2cc(O)cc(-c3ncc4c(N5CC6CCC(C5)N6C(C)=O)nc(OCC5(CN6CCN(CC7CCN(Cc8ccc(-n9c(C(=O)NC(C)C(F)(F)F)nnc9-c9cc(C(C)C)c(O)cc9O)cc8)CC7)CC6)CC5)nc4c3F)c12 (centres unmarked) [Compound 150],100 to 1000,< 100,< 100,100 to 1000,< 100,,,,
CC(C)c1cc(C(=O)N2Cc3ccc(CN4CCC(CN5CCN(CC6(COc7nc(N8CC9CCC(C8)N9)c8cnc(-c9cccc%10ccccc9%10)c(F)c8n7)CC6)CC5)CC4)cc3C2)c(O)cc1O [Compound 128],< 100,100 to 1000,100 to 1000,100 to 1000,100 to 1000,,,,
C#Cc1cccc2cc(O)cc(-c3ncc4c(N5CC6CCC(C5)N6)nc(OCC5(CN6CCN(Cc7ccc(-n8c(C(=O)NCC(F)(F)F)nnc8-c8cc(C(C)C)c(O)cc8O)cc7)CC6)CC5)nc4c3F)c12 [Compound 130],< 100,< 100,< 100,100 to 1000,< 100,,,,
C#Cc1c(F)ccc2cc(O)cc(-c3ncc4c(N5CC6CCC(C5)N6)nc(OCC5(CN6CCN(CC7CCN(Cc8ccc(-n9c(C(=O)NCC(F)(F)F)nnc9-c9cc(C(C)C)c(O)cc9O)cc8)CC7)CC6)CC5)nc4c3F)c12 [Compound 154],< 100,< 100,< 100,< 100,< 100,,,,
CC(C)c1cc(C(=O)N2Cc3ccc(CN4CCC(CN5CCN(CC6(COc7nc(N8CC9CCC(C8)N9)c8cnc(-c9cc(O)cc%10ccccc9%10)c(F)c8n7)CC6)CC5)CC4)cc3C2)c(O)cc1O [Compound 159],< 100,100 to 1000,100 to 1000,100 to 1000,100 to 1000,,,,
C#Cc1cccc2cc(O)cc(-c3ncc4c(N5CC6CCC(C5)N6)nc(OCC5(CN6CCC(OC7CCN(Cc8ccc(-n9c(C(=O)NCC(F)(F)F)nnc9-c9cc(C(C)C)c(O)cc9O)cc8)CC7)CC6)CC5)nc4c3F)c12 [Compound 132],< 100,< 100,< 100,< 100,< 100,,,,
CC(C)c1cc(C(=O)N2Cc3ccc(CN4CCN([C@H]5C[C@@H](COc6nc(N7CC8CCC(C7)N8)c7cnc(-c8ccccc8C(F)(F)F)c(F)c7n6)N(C)C5)CC4)cc3C2)c(O)cc1O [Compound 58],> 1000,< 100,< 100,100 to 1000,100 to 1000,,,,
CC(C)c1cc(C(=O)N2Cc3ccc(CN4CCN([C@H]5C[C@@H](COc6nc(N7CC8CCC(C7)N8)c7cnc(-c8cccc9ccccc89)c(F)c7n6)N(C)C5)CC4)cc3C2)c(O)cc1O [Compound 35],> 1000,100 to 1000,100 to 1000,100 to 1000,100 to 1000,,,,
C#Cc1cccc2cccc(-c3ncc4c(N5CC6CCC(C5)N6)nc(OCC5(CN6CCN(Cc7ccc(-n8c(C(=O)NC(C)C(F)(F)F)nnc8-c8cc(C(C)C)c(O)cc8O)cc7)CC6)CC5)nc4c3F)c12 (centres unmarked) [Compound 55],100 to 1000,100 to 1000,100 to 1000,100 to 1000,100 to 1000,,,,
C#Cc1c(F)ccc2cc(O)cc(-c3ncc4c(N5CC6CCC(C5)N6)nc(OCC5(CN6CCN(CC7CCN(c8ccc(-n9c(C(=O)NCC)nnc9-c9cc(C(C)C)c(O)cc9O)cc8)CC7)CC6)CC5)nc4c3F)c12 [Compound 145],< 100,< 100,< 100,100 to 1000,< 100,,,,
C#Cc1cccc2cc(O)cc(-c3ncc4c(N5CC6CCC(C5)N6C(=O)C(F)(F)F)nc(OCC5(CN6CCN(CC7CCN(Cc8ccc(-n9c(C(=O)NCC(F)(F)F)nnc9-c9cc(C(C)C)c(O)cc9O)cc8)CC7)CC6)CC5)nc4c3F)c12 [Compound 143],100 to 1000,< 100,< 100,100 to 1000,< 100,,,,
C#Cc1cccc2cc(O)cc(-c3ncc4c(N5CC6CCC(C5)N6)nc(OCC5(CN6CCN(CC7CCN(Cc8ccc9c(c8)CN(C(=O)c8cc(C(C)C)c(O)cc8O)C9)CC7)CC6)CC5)nc4c3F)c12 [Compound 125],< 100,,,,,< 100,100 to 1000,100 to 1000,< 100
C#Cc1cccc2cc(O)cc(-c3ncc4c(N5CC6CCC(C5)N6)nc(OCC5(CN6CCN(CC7CCN(Cc8ccc9c(c8)CN(C(=O)c8cc(C(C)C)c(OC)cc8O)C9)CC7)CC6)CC5)nc4c3F)c12 [Compound 144],< 100,< 100,100 to 1000,100 to 1000,100 to 1000,,,,
C#Cc1c(F)ccc2cc(O)cc(-c3nc(OC)c4c(N5CC6CCC(C5)N6)nc(OCC5(CN6CCN(CC7CCN(Cc8ccc9c(c8)CN(C(=O)c8cc(C(C)C)c(O)cc8O)C9)CC7)CC6)CC5)nc4c3F)c12 [Compound 156],< 100,< 100,100 to 1000,< 100,< 100,,,,
